In patent EP0626016B1, “[…] […]” (BRITISH TECHNOLOGY GROUP LIMITED, priority 1992, dated 1993):
Read-outs that look alike come from different tables or passages of the source.

Biological target: T1, HRP Type VIA (Armoracia rusticana, UniProt P00433)
T1 sequence (P00433 31-338): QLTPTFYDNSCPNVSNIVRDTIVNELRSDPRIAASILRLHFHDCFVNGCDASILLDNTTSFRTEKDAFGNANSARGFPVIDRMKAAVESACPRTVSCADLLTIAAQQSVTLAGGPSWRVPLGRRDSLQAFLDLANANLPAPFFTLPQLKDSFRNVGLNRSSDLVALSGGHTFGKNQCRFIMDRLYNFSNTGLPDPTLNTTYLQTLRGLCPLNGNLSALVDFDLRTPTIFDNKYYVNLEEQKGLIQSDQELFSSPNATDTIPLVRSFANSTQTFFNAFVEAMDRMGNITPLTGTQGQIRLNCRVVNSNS
Settings: for (d) Signal: Background: ratio (control = with no enhancer): control value in brackets not reported

(a) Decrease in background (without HRP with test cpd.) (0.01 mg/ml, 10µl test compound)	(b) Increase in signal (with HRP, with test cpd.) (0.01 mg/ml, 10µl test compound)	(c) Increase in signal: background ratio (0.01 mg/ml, 10µl test compound)	(d) Signal: Background: ratio (control = with no enhancer) (0.01 mg/ml, 10µl test compound)	(a) Decrease in background (without HRP with test cpd.) (0.1 mg/ml, 10µl test compound)	(b) Increase in signal (with HRP, with test cpd.) (0.1 mg/ml, 10µl test compound)	(c) Increase in signal: background ratio (0.1 mg/ml, 10µl test compound)	(d) Signal: Background: ratio (control = with no enhancer) (0.1 mg/ml, 10µl test compound)	(a) Decrease in background (without HRP with test cpd.) (1 mg/ml, 10µl test compound)	(b) Increase in signal (with HRP, with test cpd.) (1 mg/ml, 10µl test compound)	(c) Increase in signal: background ratio (1 mg/ml, 10µl test compound)	(d) Signal: Background: ratio (control = with no enhancer) (1 mg/ml, 10µl test compound)	Compound	(a) Decrease in background (without HRP with test cpd.)	(b) Increase in signal (with HRP, with test cpd.)
Y	N	N (N = no)		Y	N	N (N = no)		Y	N	N (N = no)		c1ccc2c(OB(Oc3cccc4ccccc34)c3cccc4ccccc34)cccc2c1 [Compound 1047, di-(1-naphthoxy)-l-naphthylborane]		
Y	N	N (N = no)		Y	N	N (N = no)	3.2 (2.9)	Y	N	N (N = no)		BrCc1ccccc1OB(Oc1ccccc1CBr)c1ccccc1CBr [Compound 1049, 2-boromethylphenyl-di-(2'-boromethylphenoxy)borane]		
Y	N	N (N = no)		Y	N	N (N = no)	3.3 (2.9)	Y	N	N (N = no)		CSCc1ccccc1B(O)O [Compound 1050, 2-(methylthiomethyl)phenylboronic acid]		
												bis(catechol)borate [Compound 1013]	Y	N
Y	N	N (N = no)	2.3	Y	N	N (N = no)	1.6	Y	N	N (N = no)	1.8 (2.5)	boraxarophenanthrene [Compound 1014]		

Compound	(a) Decrease in background (without HRP with test cpd.) (0.01 mg/ml, 10µl test compound)	(b) Increase in signal (with HRP, with test cpd.) (0.01 mg/ml, 10µl test compound)	(c) Increase in signal: background ratio (0.01 mg/ml, 10µl test compound)	(d) Signal: Background: ratio (control = with no enhancer) (0.01 mg/ml, 10µl test compound)	(a) Decrease in background (without HRP with test cpd.) (0.1 mg/ml, 10µl test compound)	(b) Increase in signal (with HRP, with test cpd.) (0.1 mg/ml, 10µl test compound)	(c) Increase in signal: background ratio (0.1 mg/ml, 10µl test compound)	(d) Signal: Background: ratio (control = with no enhancer) (0.1 mg/ml, 10µl test compound)	(a) Decrease in background (without HRP with test cpd.) (1 mg/ml, 10µl test compound)	(b) Increase in signal (with HRP, with test cpd.) (1 mg/ml, 10µl test compound)	(c) Increase in signal: background ratio (1 mg/ml, 10µl test compound)	(d) Signal: Background: ratio (control = with no enhancer) (1 mg/ml, 10µl test compound)	(a) Decrease in background (without HRP with test cpd.)	(b) Increase in signal (with HRP, with test cpd.)
O=C(O)c1ccc(B(O)O)cc1[N+](=O)[O-] [Compound 1045, 4-carboxy-3-nitrophenylboronic acid]	Y	N	N (N = no)	2.2 (2.0)	Y	Y	Y (Column (c) shows whether there was an increase in the signal:background ratio by over 25% of the control value (Y = yes)	18.1 (2.8)	Y	N	Y (Column (c) shows whether there was an increase in the signal:background ratio by over 25% of the control value (Y = yes)	68.5 (4.5)		
